# Data taken from US20140194392A1 (priority 2013, published 2014).
# What was measured:
# [1] = tested on: Influenza A/TW/70058/09 (H1N1); assay: microbe, parasite or virus in culture; format: cell-based; conditions: H1N1, read-out: EC50 on the inhibition of replication (viral plaque reduction assay)
# [2] = tested on: Influenza A/TW/70066/09 (H1N1); assay: microbe, parasite or virus in culture; format: cell-based; conditions: H1N1, read-out: EC50 on the inhibition of replication (viral plaque reduction assay)
compound,measurement,setting,value
"Nc1c(S(=O)(=O)O)cc(Nc2cccc(S(=O)(=O)CCOS(=O)(=O)O)c2)c2c1C(=O)c1ccccc1C2=O [RB19, remazol brilliant blue R]",EC50,[1],9.8 µM
same,EC50,[2],11.9 µM
